In PubChem BioAssay AID1963967 (Molecular Pharmacology Branch, DTP, NCI, 2024):

Test system: 855422-203-R-J1-PDC spheroids with HUVEC/MSC, viability
Experiment: Anticancer human tumor 855422-203-R-J1-PDC patient-derived bladder carcinoma cell line growth inhibition [PI3K]
Details: for IC50: curve of first compound; for viability, T/C: stronger effect = lower value
How it was run: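 Combination activity was assessed by viability in multicellular tumor spheroids carrying HUVEC and MSC components. Agents were tested with PI3K inhibitors from a Cmax-based top dose (or 10 microM) downward in half-log increments.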

[1] = second compound 0.0316 µM, first compound 0.0316 µM
[2] = second compound 0.0316 µM, first compound 0.1 µM
[3] = second compound 0.0316 µM, first compound 0.316 µM
[4] = second compound 0.0316 µM, first compound 1 µM
[5] = second compound 0.0316 µM, first compound 3.16 µM
[6] = second compound 0.0316 µM, first compound 10 µM
[7] = second compound 0.1 µM, first compound 0.0316 µM
[8] = second compound 0.1 µM, first compound 0.1 µM
[9] = second compound 0.1 µM, first compound 0.316 µM
[10] = second compound 0.1 µM, first compound 1 µM
[11] = second compound 0.1 µM, first compound 3.16 µM
[12] = second compound 0.1 µM, first compound 10 µM
[13] = second compound 0.316 µM, first compound 0.0316 µM
[14] = second compound 0.316 µM, first compound 0.1 µM
[15] = second compound 0.316 µM, first compound 0.316 µM
[16] = second compound 0.316 µM, first compound 1 µM
[17] = second compound 0.316 µM, first compound 3.16 µM
[18] = second compound 0.316 µM, first compound 10 µM
[19] = second compound 1 µM, first compound 0.0316 µM
[20] = second compound 1 µM, first compound 0.1 µM
[21] = second compound 1 µM, first compound 0.316 µM
[22] = second compound 1 µM, first compound 1 µM
[23] = second compound 1 µM, first compound 3.16 µM
[24] = second compound 1 µM, first compound 10 µM
[25] = second compound 3.16 µM, first compound 0.0316 µM
[26] = second compound 3.16 µM, first compound 0.1 µM
[27] = second compound 3.16 µM, first compound 0.316 µM
[28] = second compound 3.16 µM, first compound 1 µM
[29] = second compound 3.16 µM, first compound 3.16 µM
[30] = second compound 3.16 µM, first compound 10 µM
[31] = second compound 10 µM, first compound 0.0316 µM
[32] = second compound 10 µM, first compound 0.1 µM
[33] = second compound 10 µM, first compound 0.316 µM
[34] = second compound 10 µM, first compound 1 µM
[35] = second compound 10 µM, first compound 3.16 µM
[36] = second compound 10 µM, first compound 10 µM
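Note: agents incubated with spheroids for one week before read-out.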
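Throughout, for viability, T/C: 100% = DMSO vehicle-treated control wells.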

`CC1(C)CCC(CN2CCN(c3ccc(C(=O)NS(=O)(=O)c4ccc(NCC5CCOCC5)c([N+](=O)[O-])c4)c(Oc4cnc5[nH]ccc5c4)c3)CC2)=C(c2ccc(Cl)cc2)C1` + Cc1nc(NC(=O)N2CCCC2C(N)=O)sc1-c1ccnc(C(C)(C)C(F)(F)F)c1 was tested, and the IC50 (second compound 0.0316 µM) was 4.57 µM, the IC50 (second compound 0.1 µM) was 4.94 µM and the IC50 (second compound 0.316 µM) was 5.26 µM. It also gave an IC50 (second compound 1 µM) of 4.58 µM, an IC50 (second compound 3.16 µM) of less than 0.0316 µM and an IC50 (second compound 10 µM) of less than 0.0316 µM. The viability, T/C [1] was 105%, the viability, T/C [2] was 89.9% and the viability, T/C [3] was 112%. The viability, T/C [4] was 100%, the viability, T/C [5] was 72.8% and the viability, T/C [6] was 1.55%. The viability, T/C [7] was 99.8%, the viability, T/C [8] was 87.4% and the viability, T/C [9] was 101%. For the same molecule, the viability, T/C [10] was 102%, the viability, T/C [11] was 80.6% and the viability, T/C [12] was 1.52%. It also gave a viability, T/C [13] of 89.8%, a viability, T/C [14] of 91.8% and a viability, T/C [15] of 95.3%. The viability, T/C [16] was 92.1%, the viability, T/C [17] was 88.6% and the viability, T/C [18] was 1.39%. It also gave a viability, T/C [19] of 76.8%, a viability, T/C [20] of 77% and a viability, T/C [21] of 69.5%. The viability, T/C [22] was 81%, the viability, T/C [23] was 73.3% and the viability, T/C [24] was 0.91%. The viability, T/C [25] was 47.7%, the viability, T/C [26] was 45.5% and the viability, T/C [27] was 42.7%. The viability, T/C [28] was 49%, the viability, T/C [29] was 47% and the viability, T/C [30] was 0.59%. The viability, T/C [31] was 25.8%, the viability, T/C [32] was 23.5% and the viability, T/C [33] was 25.7%. It also gave a viability, T/C [34] of 29.4%, a viability, T/C [35] of 24.7% and a viability, T/C [36] of 0.6%.

Work on `C[C@@H](NC(=O)c1ncnc(N)c1Cl)c1ncc(C(=O)Nc2cc(C(F)(F)F)c(Cl)cn2)s1` + Cc1nc(NC(=O)N2CCCC2C(N)=O)sc1-c1ccnc(C(C)(C)C(F)(F)F)c1 yielded an IC50 (second compound 0.0316 µM) greater than 10 µM, an IC50 (second compound 0.1 µM) greater than 10 µM and an IC50 (second compound 0.316 µM) greater than 10 µM. It also gave an IC50 (second compound 1 µM) of 4.57 µM, an IC50 (second compound 3.16 µM) of less than 0.0316 µM and an IC50 (second compound 10 µM) of less than 0.0316 µM. It also gave a viability, T/C [1] of 97.8%, a viability, T/C [2] of 85.9% and a viability, T/C [3] of 118%. It also gave a viability, T/C [4] of 100%, a viability, T/C [5] of 118% and a viability, T/C [6] of 109%. The viability, T/C [7] was 72.7%, the viability, T/C [8] was 86.8% and the viability, T/C [9] was 104%. The viability, T/C [10] was 91.2%, the viability, T/C [11] was 111% and the viability, T/C [12] was 93.4%. For the same molecule, the viability, T/C [13] was 73.1%, the viability, T/C [14] was 85.9% and the viability, T/C [15] was 94.3%. It also gave a viability, T/C [16] of 85.8%, a viability, T/C [17] of 94.6% and a viability, T/C [18] of 60.9%. The viability, T/C [19] was 70.1%, the viability, T/C [20] was 67.2% and the viability, T/C [21] was 51.2%. It also gave a viability, T/C [22] of 68.6%, a viability, T/C [23] of 62.3% and a viability, T/C [24] of 23.4%. It also gave a viability, T/C [25] of 39.3%, a viability, T/C [26] of 44.6% and a viability, T/C [27] of 30.9%. The viability, T/C [28] was 42.8%, the viability, T/C [29] was 33.5% and the viability, T/C [30] was 14.3%. It also gave a viability, T/C [31] of 25%, a viability, T/C [32] of 18.9% and a viability, T/C [33] of 24.3%. The viability, T/C [34] was 18.8%, the viability, T/C [35] was 11.7% and the viability, T/C [36] was 4.33%.

`Cn1ncnc1[C@H]1c2n[nH]c(=O)c3cc(F)cc(c23)N[C@@H]1c1ccc(F)cc1` + Cc1nc(NC(=O)N2CCCC2C(N)=O)sc1-c1ccnc(C(C)(C)C(F)(F)F)c1 gave an IC50 (second compound 0.0316 µM) greater than 0.1 µM, an IC50 (second compound 0.1 µM) greater than 0.1 µM and an IC50 (second compound 0.316 µM) greater than 0.1 µM. For the same molecule, the IC50 (second compound 1 µM) was greater than 0.1 µM, the IC50 (second compound 3.16 µM) was 0.000903 µM and the IC50 (second compound 10 µM) was less than 0.000316 µM. The viability, T/C (second compound 0.0316 µM, first compound 0.000316 µM) was 112%, the viability, T/C (second compound 0.0316 µM, first compound 0.001 µM) was 92.8% and the viability, T/C (second compound 0.0316 µM, first compound 0.00316 µM) was 112%. For the same molecule, the viability, T/C (second compound 0.0316 µM, first compound 0.01 µM) was 96.8%, the viability, T/C [1] was 105% and the viability, T/C [2] was 109%. For the same molecule, the viability, T/C (second compound 0.1 µM, first compound 0.000316 µM) was 105%, the viability, T/C (second compound 0.1 µM, first compound 0.001 µM) was 102% and the viability, T/C (second compound 0.1 µM, first compound 0.00316 µM) was 102%. For the same molecule, the viability, T/C (second compound 0.1 µM, first compound 0.01 µM) was 101%, the viability, T/C [7] was 101% and the viability, T/C [8] was 105%. The viability, T/C (second compound 0.316 µM, first compound 0.000316 µM) was 92.9%, the viability, T/C (second compound 0.316 µM, first compound 0.001 µM) was 93.8% and the viability, T/C (second compound 0.316 µM, first compound 0.00316 µM) was 95.8%. The viability, T/C (second compound 0.316 µM, first compound 0.01 µM) was 94.7%, the viability, T/C [13] was 98.6% and the viability, T/C [14] was 97.2%. It also gave a viability, T/C (second compound 1 µM, first compound 0.000316 µM) of 72.7%, a viability, T/C (second compound 1 µM, first compound 0.001 µM) of 74% and a viability, T/C (second compound 1 µM, first compound 0.00316 µM) of 79.2%. It also gave a viability, T/C (second compound 1 µM, first compound 0.01 µM) of 75.5%, a viability, T/C [19] of 79.4% and a viability, T/C [20] of 68.3%. The viability, T/C (second compound 3.16 µM, first compound 0.000316 µM) was 51.6%, the viability, T/C (second compound 3.16 µM, first compound 0.001 µM) was 49.8% and the viability, T/C (second compound 3.16 µM, first compound 0.00316 µM) was 47.1%. It also gave a viability, T/C (second compound 3.16 µM, first compound 0.01 µM) of 47.7%, a viability, T/C [25] of 49.1% and a viability, T/C [26] of 44.6%. It also gave a viability, T/C (second compound 10 µM, first compound 0.000316 µM) of 25.6%, a viability, T/C (second compound 10 µM, first compound 0.001 µM) of 25.1% and a viability, T/C (second compound 10 µM, first compound 0.00316 µM) of 22.2%. The viability, T/C (second compound 10 µM, first compound 0.01 µM) was 27.8%, the viability, T/C [31] was 25.1% and the viability, T/C [32] was 21.3%.
